Laboratory results taken from PubChem BioAssay AID1745844 (Carcinogenic Potency Database (CPDB), 2022).
Values joined by “and” are separate entries in the source; they are usually repeats but may differ in a detail not shown here. Equal values may be shown once. Active and inactive are the calls of the source. No rule for the calls is given here.

System: rodent lifetime carcinogenesis bioassay, tumor incidence TD50
Experiment: chronic cancer bioassays in animals – CPDB, compiled studies (AID 1745844)

Nc1ccc2cc3ccc(N)cc3nc2c1
TD50 (mouse, strain B6C3F1, females, in feed, site: any site (literature study), lesion: several types, types named in the paper, dosed 103 weeks, study length 103 weeks): 86.2 mg/kg/day
TD50 (mouse, strain B6C3F1, females, in feed, site: liver, lesion: hepatocellular adenoma + hepatocellular carcinoma + neoplastic nodule, dosed 103 weeks, study length 103 weeks): 26.4 mg/kg/day
TD50 (mouse, strain B6C3F1, females, in feed, site: liver, lesion: hepatocellular adenoma + hepatocellular carcinoma, dosed 103 weeks, study length 103 weeks): 26.4 mg/kg/day
TD50 (mouse, strain B6C3F1, females, in feed, site: lung, lesion: alveolar/bronchiolar adenoma + alveolar/bronchiolar carcinoma, dosed 103 weeks, study length 103 weeks): 487 mg/kg/day
TD50 (mouse, strain B6C3F1, males, in feed, site: liver, lesion: hepatocellular adenoma + hepatocellular carcinoma + neoplastic nodule, dosed 103 weeks, study length 103 weeks): 248 mg/kg/day
TD50 (rat, strain Fischer 344, males, in feed, site: large intestine + small intestine, lesion: sarcoma, NOS + adenocarcinoma, NOS + leiomyosarcoma, dosed 109 weeks, study length 109 weeks): 213 mg/kg/day
TD50 (rat, strain Fischer 344, males, in feed, site: liver, lesion: hepatocellular adenoma + hepatocellular carcinoma + neoplastic nodule, dosed 109 weeks, study length 109 weeks): 254 mg/kg/day
TD50 (rat, strain Fischer 344, males, in feed, site: liver, lesion: hepatocellular carcinoma + neoplastic nodule, dosed 109 weeks, study length 109 weeks): 254 mg/kg/day

C=C(F)F
TD50 (rat, strain Sprague-Dawley, females, by gavage, site: fat, lesion: lipoma, dosed 52 weeks, study length 141 weeks): 60.3 mg/kg/day
TD50 (rat, strain Sprague-Dawley, females, by gavage, site: fat, lesion: liposarcoma, dosed 52 weeks, study length 141 weeks): 122 mg/kg/day
TD50 (rat, strain Sprague-Dawley, males, by gavage, site: fat, lesion: liposarcoma, dosed 52 weeks, study length 141 weeks): 38.8 mg/kg/day

CCSC[C@H](N)C(=O)O
TD50 (rat, strain Wistar, males, in feed, site: abdomen, lesion: liposarcoma, dosed 58 weeks, study length 89 weeks): 3630 mg/kg/day (inactive)
TD50 (rat, strain Wistar, males, in feed, site: any site (literature study), lesion: several types, types named in the paper, dosed 58 weeks, study length 89 weeks): 3630 mg/kg/day (inactive)
carcinogen call (rat, strain Wistar, males, in feed, site: liver, lesion: one or several types, types not named, dosed 58 weeks, study length 89 weeks): negative (inactive)

CN(N=O)C(=O)c1c(N(C)N=O)ncn1C
TD50 (rat, strain BD IX, both sexes, by gavage, site: forestomach, lesion: squamous-cell carcinoma, dosed 41 weeks, study length 52 weeks): 0.183 mg/kg/day

COc1cc(S(C)=O)ccc1-c1nc2ccncc2[nH]1 (stereo not given)
TD50 (rat, strain Fischer 344, females, in feed, site: adrenal medulla, lesion: pheochromocytoma, benign, dosed 104 weeks, study length 104 weeks): 450 mg/kg/day
TD50 (rat, strain Fischer 344, females, in feed, site: adrenal medulla, lesion: several types, types named in the paper, dosed 104 weeks, study length 104 weeks): 385 mg/kg/day
TD50 (rat, strain Fischer 344, males, in feed, site: adrenal medulla, lesion: pheochromocytoma, benign, dosed 104 weeks, study length 104 weeks): 45.4 mg/kg/day
TD50 (rat, strain Fischer 344, males, in feed, site: adrenal medulla, lesion: pheochromocytoma, malignant, dosed 104 weeks, study length 104 weeks): 481 mg/kg/day
TD50 (rat, strain Fischer 344, males, in feed, site: adrenal medulla, lesion: several types, types named in the paper, dosed 104 weeks, study length 104 weeks): 38.8 mg/kg/day

N#CN
TD50 (mouse, strain B6AKF1, males, oral dosing, site: liver, lesion: hepatoma, dosed 76 weeks, study length 76 weeks): 191 mg/kg/day
TD50 (mouse, strain B6C3F1, females, in feed, site: all sites, lesion: leukemia + lymphoma, dosed 100 weeks, study length 100 weeks): 478 mg/kg/day (inactive)
TD50 (mouse, strain B6C3F1, females, in feed, site: lung, lesion: alveolar/bronchiolar adenoma + alveolar/bronchiolar carcinoma, dosed 100 weeks, study length 100 weeks): 4040 mg/kg/day
TD50 (mouse, strain B6C3F1, females, oral dosing, site: any site (literature study), lesion: several types, types named in the paper, dosed 76 weeks, study length 76 weeks): 68 mg/kg/day
TD50 (mouse, strain B6C3F1, males, in feed, site: all sites, lesion: hemangiosarcoma, dosed 100 weeks, study length 100 weeks): 766 mg/kg/day (inactive)
TD50 (mouse, strain B6C3F1, males, in feed, site: any site (literature study), lesion: several types, types named in the paper, dosed 100 weeks, study length 100 weeks): 909 mg/kg/day
TD50 (mouse, strain B6C3F1, males, oral dosing, site: all sites, lesion: reticulum-cell sarcoma, dosed 76 weeks, study length 76 weeks): 30.9 mg/kg/day
TD50 (mouse, strain B6C3F1, males, oral dosing, site: any site (literature study), lesion: several types, types named in the paper, dosed 76 weeks, study length 76 weeks): 16.7 mg/kg/day
TD50 (mouse, strain B6C3F1, males, oral dosing, site: liver, lesion: hepatoma, dosed 76 weeks, study length 76 weeks): 55.7 mg/kg/day
TD50 (rat, strain Fischer 344, females, in feed, site: any site (literature study), lesion: several types, types named in the paper, dosed 107 weeks, study length 107 weeks): 267 mg/kg/day (inactive)
TD50 (rat, strain Fischer 344, males, in feed, site: all sites, lesion: leukemia + lymphoma + neoplasm, NOS, dosed 107 weeks, study length 107 weeks): 7.45 mg/kg/day (inactive)

CN1CCCC1=O
TD50 (mouse, strain B6C3F1, females, in feed, site: any site (literature study), lesion: benign tumor, dosed 78 weeks, study length 78 weeks): 3440 mg/kg/day
TD50 (mouse, strain B6C3F1, females, in feed, site: any site (literature study), lesion: malignant tumor, dosed 78 weeks, study length 78 weeks): 14900 mg/kg/day
TD50 (mouse, strain B6C3F1, females, in feed, site: liver, lesion: hepatocellular adenoma, dosed 78 weeks, study length 78 weeks): 3320 mg/kg/day
TD50 (mouse, strain B6C3F1, females, in feed, site: liver, lesion: hepatocellular carcinoma, dosed 78 weeks, study length 78 weeks): 7330 mg/kg/day
TD50 (mouse, strain B6C3F1, males, in feed, site: any site (literature study), lesion: benign tumor, dosed 78 weeks, study length 78 weeks): 1630 mg/kg/day
TD50 (mouse, strain B6C3F1, males, in feed, site: any site (literature study), lesion: malignant tumor, dosed 78 weeks, study length 78 weeks): 2270 mg/kg/day
TD50 (mouse, strain B6C3F1, males, in feed, site: liver, lesion: hepatocellular adenoma, dosed 78 weeks, study length 78 weeks): 1760 mg/kg/day
TD50 (mouse, strain B6C3F1, males, in feed, site: liver, lesion: hepatocellular carcinoma, dosed 78 weeks, study length 78 weeks): 1480 mg/kg/day
TD50 (mouse, strain B6C3F1, males, in feed, site: lung, lesion: adenoma, dosed 78 weeks, study length 78 weeks): 4080 mg/kg/day
carcinogen call (rat, strain Charles River CD (Sprague-Dawley), females, in feed, site: any site (literature study), lesion: several types, types named in the paper, dosed 104 weeks, study length 104 weeks): negative (inactive)
carcinogen call (rat, strain Charles River CD (Sprague-Dawley), females, in feed, site: liver, lesion: several types, types named in the paper, dosed 104 weeks, study length 104 weeks): negative (inactive)
carcinogen call (rat, strain Charles River CD (Sprague-Dawley), females, inhaled, site: liver, lesion: one or several types, types not named, dosed 104 weeks, study length 104 weeks): negative (inactive)
TD50 (rat, strain Charles River CD (Sprague-Dawley), males, in feed, site: any site (literature study), lesion: several types, types named in the paper, dosed 104 weeks, study length 104 weeks): 6060 mg/kg/day (inactive)
TD50 (rat, strain Charles River CD (Sprague-Dawley), males, in feed, site: liver, lesion: several types, types named in the paper, dosed 104 weeks, study length 104 weeks): 58500 mg/kg/day (inactive)
carcinogen call (rat, strain Charles River CD (Sprague-Dawley), males, inhaled, site: liver, lesion: one or several types, types not named, dosed 104 weeks, study length 104 weeks): negative (inactive)

S=P(N1CC1)(N1CC1)N1CC1
TD50 (mouse, strain B6C3F1, females, i.p., site: all sites, lesion: lymphocytic leukemia + lymphoma, dosed 47 weeks, study length 86 weeks): 0.216 mg/kg/day and 0.21 mg/kg/day
TD50 (mouse, strain B6C3F1, females, i.p., site: any site (literature study), lesion: several types, types named in the paper, dosed 47 weeks, study length 86 weeks): 0.0855 mg/kg/day
TD50 (mouse, strain B6C3F1, females, i.p., site: liver, lesion: hepatocellular adenoma + hepatocellular carcinoma + neoplastic nodule, dosed 47 weeks, study length 86 weeks): 1.12 mg/kg/day
TD50 (mouse, strain B6C3F1, females, i.p., site: lung, lesion: alveolar/bronchiolar adenoma + alveolar/bronchiolar carcinoma, dosed 47 weeks, study length 86 weeks): 0.408 mg/kg/day
TD50 (mouse, strain B6C3F1, females, i.p., site: lung, lesion: alveolar/bronchiolar adenoma, dosed 47 weeks, study length 86 weeks): 0.408 mg/kg/day
TD50 (mouse, strain B6C3F1, males, i.p., site: all sites, lesion: leukemia + lymphocytic leukemia + lymphoma, dosed 52 weeks, study length 83 weeks): 0.241 mg/kg/day
TD50 (mouse, strain B6C3F1, males, i.p., site: all sites, lesion: leukemia + lymphoma, dosed 52 weeks, study length 83 weeks): 0.241 mg/kg/day and 0.238 mg/kg/day
TD50 (mouse, strain B6C3F1, males, i.p., site: all sites, lesion: lymphocytic leukemia + lymphoma, dosed 52 weeks, study length 83 weeks): 0.265 mg/kg/day and 0.262 mg/kg/day
TD50 (mouse, strain B6C3F1, males, i.p., site: all sites, lesion: squamous-cell carcinoma, dosed 52 weeks, study length 83 weeks): 0.102 mg/kg/day
TD50 (mouse, strain B6C3F1, males, i.p., site: any site (literature study), lesion: several types, types named in the paper, dosed 52 weeks, study length 83 weeks): 0.069 mg/kg/day
TD50 (mouse, strain B6C3F1, males, i.p., site: liver, lesion: hepatocellular adenoma + hepatocellular carcinoma + neoplastic nodule, dosed 52 weeks, study length 83 weeks): 1.12 mg/kg/day
TD50 (mouse, strain B6C3F1, males, i.p., site: lung, lesion: alveolar/bronchiolar adenoma + alveolar/bronchiolar carcinoma, dosed 52 weeks, study length 83 weeks): 0.584 mg/kg/day
TD50 (mouse, strain B6C3F1, males, i.p., site: preputial gland, lesion: squamous-cell carcinoma, dosed 52 weeks, study length 83 weeks): 0.3 mg/kg/day
TD50 (mouse, strain B6C3F1, males, i.p., site: skin, lesion: squamous-cell carcinoma, dosed 52 weeks, study length 83 weeks): 0.28 mg/kg/day
TD50 (rat, strain BR 46, males, i.v., site: any site (literature study), lesion: benign tumor, dosed 52 weeks, study length 104 weeks): 0.646 mg/kg/day
TD50 (rat, strain BR 46, males, i.v., site: any site (literature study), lesion: malignant tumor, dosed 52 weeks, study length 104 weeks): 0.303 mg/kg/day
TD50 (rat, strain BR 46, males, i.v., site: any site (literature study), lesion: several types, types named in the paper, dosed 52 weeks, study length 104 weeks): 0.186 mg/kg/day
TD50 (rat, strain Sprague-Dawley, females, i.p., site: any site (literature study), lesion: several types, types named in the paper, dosed 36 weeks, study length 81 weeks): 0.0404 mg/kg/day
TD50 (rat, strain Sprague-Dawley, females, i.p., site: brain + nasal cavity, lesion: olfactory neuroblastoma + carcinoma, NOS, dosed 36 weeks, study length 81 weeks): 0.819 mg/kg/day
TD50 (rat, strain Sprague-Dawley, females, i.p., site: ear canal + skin, lesion: squamous-cell carcinoma, dosed 36 weeks, study length 79 weeks): 0.214 mg/kg/day
TD50 (rat, strain Sprague-Dawley, females, i.p., site: ear canal + skin, lesion: squamous-cell carcinoma, dosed 36 weeks, study length 81 weeks): 0.217 mg/kg/day
TD50 (rat, strain Sprague-Dawley, females, i.p., site: ear canal, lesion: squamous-cell carcinoma, dosed 36 weeks, study length 79 weeks): 0.327 mg/kg/day
TD50 (rat, strain Sprague-Dawley, females, i.p., site: mammary gland, lesion: adenocarcinoma, NOS, dosed 36 weeks, study length 79 weeks): 0.182 mg/kg/day
TD50 (rat, strain Sprague-Dawley, females, i.p., site: uterus, lesion: adenocarcinoma, NOS, dosed 36 weeks, study length 79 weeks): 0.236 mg/kg/day
TD50 (rat, strain Sprague-Dawley, females, i.p., site: uterus, lesion: adenocarcinoma, NOS, dosed 36 weeks, study length 81 weeks): 0.243 mg/kg/day
TD50 (rat, strain Sprague-Dawley, males, i.p., site: all sites, lesion: leukemia + lymphoma, dosed 32 weeks, study length 79 weeks): 0.224 mg/kg/day
TD50 (rat, strain Sprague-Dawley, males, i.p., site: all sites, lesion: leukemia, dosed 32 weeks, study length 79 weeks): 0.29 mg/kg/day
TD50 (rat, strain Sprague-Dawley, males, i.p., site: all sites, lesion: leukemia, dosed 32 weeks, study length 82 weeks): 0.312 mg/kg/day
TD50 (rat, strain Sprague-Dawley, males, i.p., site: all sites, lesion: lymphocytic leukemia, dosed 32 weeks, study length 79 weeks): 0.374 mg/kg/day
TD50 (rat, strain Sprague-Dawley, males, i.p., site: any site (literature study), lesion: several types, types named in the paper, dosed 32 weeks, study length 82 weeks): 0.0332 mg/kg/day
TD50 (rat, strain Sprague-Dawley, males, i.p., site: brain + nasal cavity, lesion: neuroblastoma + olfactory neuroblastoma + carcinoma, NOS, dosed 32 weeks, study length 82 weeks): 0.285 mg/kg/day
TD50 (rat, strain Sprague-Dawley, males, i.p., site: ear canal + skin, lesion: squamous-cell carcinoma, dosed 32 weeks, study length 79 weeks): 0.122 mg/kg/day
TD50 (rat, strain Sprague-Dawley, males, i.p., site: skin, lesion: squamous-cell carcinoma, dosed 32 weeks, study length 79 weeks): 0.155 mg/kg/day
TD50 (rat, strain Sprague-Dawley, males, i.p., site: subcutaneous tissue, lesion: sarcoma, NOS, dosed 32 weeks, study length 79 weeks): 0.22 mg/kg/day
